In brackets after ≈: the same amount, converted by molar mass. Like-named read-outs stand apart in the source and are kept apart here.

A short description of series [1]: N,N-Dimethyltryptamine pH-solubility in 0.5M Britton Robinson buffer. The class given is physicochemical. Conditions: aqueous buffer, thermodynamic from solid, read-out: solubility, Real data. Here is the method:
Prior to adding N,N-dimethyltryptamine, a quantity of NaOH was added to the BR buffer as required to ensure the required pH. The total volume of BR buffer plus required amount of NaOH was 5 ml for each pH tested (pH 4, 5, 6, 7, 8, 9 & 10).

The conditions of series [2]: HMDB; cited from earlier work.
For series [3] the following is noted: in water; estimated; cited from earlier work.

As to `CN(C)CCc1c[nH]c2ccccc12` [N,N-Dimethyltryptamine], the solubility in series [1] (pH 4.05, 25° C.) was 105 mg/mL (≈ 556 mM); in series [1] (pH 4.98, 25° C.) it was 126 mg/mL (≈ 671 mM); in series [1] (pH 6.05, 25° C.), 92.6 mg/mL (≈ 492 mM); in series [1] (pH 7.08, 25° C.), 68.6 mg/mL (≈ 364 mM); in series [1] (pH 8.07, 25° C.), 88.4 mg/mL (≈ 470 mM); in series [1] (pH 8.91, 25° C.), 17.1 mg/mL (≈ 90.8 mM). The solubility in series [1] (pH 10.01, 25° C.) came to 1.14 mg/mL (≈ 6.06 mM). Further, the degradation in solution entry in series [2] is listed as “degrades relatively quickly in solution”.

Regarding `CN(C)CCc1c[nH]c2cccc(OP(=O)(O)O)c12` [psilocybin, [3-(2-Dimethylaminoethyl)-1H-indol-4-yl] dihydrogen phosphate], in series [3], the “pKa of terminal phosphate oxygen atom (first value)” value is listed as 1.3 and the “pKa of terminal phosphate oxygen atom (second value)” value was 6.5.

The values are drawn from patent publication US20250032450A1, “[…] INHALABLE FORMULATIONS” (Cybin UK Ltd., priority 2021, published 2025).
